From patent EP0677522A1, “8-METHOXYQUINOLONECARBOXYLIC ACID DERIVATIVE” (priority 1992, dated 1994)
In brackets after ≈: the same amount, converted by molar mass.

Tests used:
Assay in all cases: In vitro antibacterial activity (MIC), Japan Society of Chemotherapy Standard
Assay type in all cases: cell-based
K.pneumoniae DT-S = conditions: Klebsiella pneumoniae; inoculated cells 10⁶ cells/ml
Method: (§1) The in vitro antibacterial activity (minimum inhibitory concentration, MIC, µg/ml) of the test compounds was determined according to Japan Society of Chemotherapy Standard [Chemotherapy, vol. 29, pp 76-79 (1981)].
(§2) Inoculated cells were 10⁶ cells/ml and the strain with * was incubated in a medium supplemented with 10% horse blood. The mark "1)" means quinolone resistant MRSA and "2)" means quinolone resistant bacteria.

P.aeruginosa U-31 = conditions: Pseudomonas aeruginosa, U31; inoculated cells 10⁶ cells/ml
Method: as §1, §2

[1] = tested on: Serratia marcescens IFO 12648; conditions: IFO12648, inoculated cells 10⁶ cells/ml
Method: as §1, §2

[2] = tested on: Enterobacter cloacae IFO 12937; conditions: IFO12937, inoculated cells 10⁶ cells/ml
Method: as §1, §2

[3] = tested on: S. epidermidis ATCC 12228; conditions: Staphylococcus epidermidis, ATCC12228; inoculated cells 10⁶ cells/ml
Method: as §1, §2

[4] = tested on: Proteus vulgaris IFO 3988; conditions: IFO3988, inoculated cells 10⁶ cells/ml
Method: as §1, §2

[5] = tested on: Enterococcus faecalis LS-101; conditions: LS101, inoculated cells 10⁶ cells/ml
Method: as §1, §2

[6] = tested on: Escherichia coli NIHJ JC-2; conditions: NIHJJC2, inoculated cells 10⁶ cells/ml
Method: as §1, §2

P. mirabilis IFO 3849 = conditions: Proteus mirabilis, IFO3849; inoculated cells 10⁶ cells/ml
Method: as §1, §2

[7] = tested on: Staphylococcus aureus FDA 209P; conditions: FDA209P, inoculated cells 10⁶ cells/ml
Method: as §1, §2

Shigella flexneri EW-10 = conditions: EW10, inoculated cells 10⁶ cells/ml
Method: as §1, §2

S. aureus No.88 = conditions: Staphylococcus aureus; quinolone resistant MRSA; inoculated cells 10⁶ cells/ml
Method: as §1, §2

[8] = tested on: A.calcoaceticus IFO 13006; conditions: Acinetobacter calcoaceticus, IFO13006; inoculated cells 10⁶ cells/ml
Method: as §1, §2

[9] = tested on: Streptococcus pyogenes C-203; conditions: C203, inoculated cells 10⁶ cells/ml, medium supplemented with 10% horse blood
Method: as §1, §2

L.monocytogenes VTU-206 = conditions: Listeria monocytogenes, VTU206; inoculated cells 10⁶ cells/ml; medium supplemented with 10% horse blood
Method: as §1, §2

E. avium EAY-30 = conditions: Enterococcus avium, EAY30, inoculated cells 10⁶ cells/ml
Method: as §1, §2

M.catarrhalis ATCC 25238 = conditions: Moraxella catarrhalis, ATCC25238; inoculated cells 10⁶ cells/ml; medium supplemented with 10% horse blood
Method: as §1, §2

E. faecium EFMY-28 = conditions: Enterococcus faecium, EFMY28; inoculated cells 10⁶ cells/ml
Method: as §1, §2

S. pneumoniae Type-III = conditions: Streptococcus pneumoniae; inoculated cells 10⁶ cells/ml; medium supplemented with 10% horse blood
Method: as §1, §2

[10] = tested on: Citrobacter freundii IFO 12681; conditions: IFO12681, inoculated cells 10⁶ cells/ml
Method: as §1, §2

Row | Structure (SMILES) | MIC (K.pneumoniae DT-S) [µg/mL] | MIC (P.aeruginosa U-31) [µg/mL] | MIC [1] [µg/mL] | MIC [2] [µg/mL] | MIC [3] [µg/mL] | MIC [4] [µg/mL] | MIC [5] [µg/mL] | MIC [6] [µg/mL] | MIC (P. mirabilis IFO 3849) [µg/mL] | MIC [7] [µg/mL] | MIC (Shigella flexneri EW-10) [µg/mL] | MIC (S. aureus No.88) [µg/mL] | MIC [8] [µg/mL] | MIC [9] [µg/mL] | MIC (L.monocytogenes VTU-206) [µg/mL] | MIC (E. avium EAY-30) [µg/mL] | MIC (M.catarrhalis ATCC 25238) [µg/mL] | MIC (E. faecium EFMY-28) [µg/mL] | MIC (S. pneumoniae Type-III) [µg/mL] | MIC [10] [µg/mL]
1 | COc1c(N2CCC(N)(CN)CC2)c(F)cc2c(=O)c(C(=O)O)cn(C3CC3)c12 [Comp. Ex. 1, 7-(4-amino-4-aminomethylpiperidin-1-yl)-1-cyclopropyl-6-fluoro-1,4-dihydro-8-methoxy-4-oxo-3-quinolinecarboxylic acid, reference compound] | 6.25 (≈ 15.5 µM) | 12.5 (≈ 30.9 µM) | 6.25 (≈ 15.5 µM) | 12.5 (≈ 30.9 µM) | 0.78 (≈ 1.93 µM) | 25 (≈ 61.8 µM) | 1.56 (≈ 3.86 µM) | 1.56 (≈ 3.86 µM) | 25 (≈ 61.8 µM) | 0.1 (≈ 0.247 µM) | 0.39 (≈ 0.964 µM) |  |  |  |  |  |  |  |  | 
2 | COc1c(N2CCC(N)(CF)C2)c(F)cc2c(=O)c(C(=O)O)cn(C3CC3)c12 (stereo not shown) [Example 1, 7-(3-amino-3-fluoromethylpyrrolidin-1-yl)-1-cyclopropyl-6-fluoro-1,4-dihydro-8-methoxy-4-oxo-3-quinolinecarboxylic acid] | 0.025 (≈ 0.0636 µM) | 0.39 (≈ 0.991 µM) | 0.2 (≈ 0.508 µM) | 0.2 (≈ 0.508 µM) | 0.012 (≈ 0.0305 µM) | 0.2 (≈ 0.508 µM) | 0.012 (≈ 0.0305 µM) | 0.025 (≈ 0.0636 µM) | 0.39 (≈ 0.991 µM) | ≤ 0.006 | ≤ 0.006 | 0.39 (≈ 0.991 µM) | 0.05 (≈ 0.127 µM) | 0.05 (≈ 0.127 µM) | 0.1 (≈ 0.254 µM) | 0.1 (≈ 0.254 µM) | 0.012 (≈ 0.0305 µM) | 0.2 (≈ 0.508 µM) | 0.012 (≈ 0.0305 µM) | 0.05 (≈ 0.127 µM)
